Source: ChEMBL document CHEMBL4406826, “Discovery of δ-sultone-fused pyrazoles for treating Alzheimer's disease: Design, synthesis, biological evaluation and SAR studies” (Eur J Med Chem, 2019)
Calls of active or inactive are those of the source.

Assays:
[1] = molecular target: Acetylcholinesterase (Electrophorus electricus) (UniProt O42275); test: Inhibition of electric eel AChE at 20 uM using acetylthiocholine iodide as substrate preincubated with enzyme for 20 mins followed by substrate addition by Ellman's method relative to control
[2] = molecular target: Cholinesterase (Equus caballus) (UniProt P81908); test: Inhibition of equine serum BuChE at 20 uM using butyrylthiocholine iodide as substrate preincubated with enzyme for 20 mins followed by substrate addition by Ellman's method relative to control
Cholinesterase = Cholinesterase (Equus caballus, UniProt P81908); test: Inhibition of equine serum BuChE using butyrylthiocholine iodide as substrate preincubated with enzyme for 20 mins followed by substrate addition by Ellman's method
[3] = Octanol-PBS buffer partition coefficient, log P of the compound incubated for 24 hrs measured at pH 7.4 by shake-flask method; format: physicochemical

Chain of Cholinesterase (P81908 whole entry): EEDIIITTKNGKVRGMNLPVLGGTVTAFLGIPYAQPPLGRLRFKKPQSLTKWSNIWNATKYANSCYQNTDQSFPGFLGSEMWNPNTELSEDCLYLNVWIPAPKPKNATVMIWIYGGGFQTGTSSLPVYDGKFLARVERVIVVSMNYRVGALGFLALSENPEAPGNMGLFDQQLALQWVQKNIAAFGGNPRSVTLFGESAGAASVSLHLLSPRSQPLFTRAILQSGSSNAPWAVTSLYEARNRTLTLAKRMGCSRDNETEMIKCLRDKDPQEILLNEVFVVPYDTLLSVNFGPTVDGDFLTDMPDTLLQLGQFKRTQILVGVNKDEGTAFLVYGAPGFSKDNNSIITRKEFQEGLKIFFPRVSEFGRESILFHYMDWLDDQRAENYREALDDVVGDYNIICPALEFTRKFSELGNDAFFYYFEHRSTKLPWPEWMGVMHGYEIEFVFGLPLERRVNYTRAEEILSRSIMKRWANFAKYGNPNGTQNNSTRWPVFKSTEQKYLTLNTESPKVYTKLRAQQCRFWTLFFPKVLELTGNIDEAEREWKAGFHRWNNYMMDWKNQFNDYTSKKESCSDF
Chain of Cholinesterase (Equus caballus) (P81908 whole entry): as above
Chain of Acetylcholinesterase (Electrophorus electricus) (O42275 24-633 limits assumed): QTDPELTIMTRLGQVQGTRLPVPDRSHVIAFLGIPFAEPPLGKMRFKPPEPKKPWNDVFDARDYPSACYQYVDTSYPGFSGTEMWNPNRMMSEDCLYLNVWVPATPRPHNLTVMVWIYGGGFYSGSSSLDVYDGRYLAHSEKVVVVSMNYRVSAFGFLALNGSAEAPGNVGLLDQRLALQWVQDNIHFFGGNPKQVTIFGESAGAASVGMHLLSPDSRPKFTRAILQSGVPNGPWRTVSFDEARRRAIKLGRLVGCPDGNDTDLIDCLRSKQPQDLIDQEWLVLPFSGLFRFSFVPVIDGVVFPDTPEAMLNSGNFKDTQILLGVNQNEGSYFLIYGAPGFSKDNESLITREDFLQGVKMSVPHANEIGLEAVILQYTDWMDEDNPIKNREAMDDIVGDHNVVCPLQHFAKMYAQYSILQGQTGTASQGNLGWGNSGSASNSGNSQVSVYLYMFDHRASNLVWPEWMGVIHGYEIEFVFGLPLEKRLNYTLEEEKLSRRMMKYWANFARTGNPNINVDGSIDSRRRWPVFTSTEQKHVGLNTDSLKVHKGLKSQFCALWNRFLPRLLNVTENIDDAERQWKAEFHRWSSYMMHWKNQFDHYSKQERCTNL

Row | Compound | inhibition [1] | inhibition [2] | IC50 (Cholinesterase) | logD at 24 h [3]
1 | N#Cc1ccc(C2CS(=O)(=O)Oc3c2c(C2CC2)nn3-c2ccccc2Cl)cc1 (centres undefined) | inactive | 7% |  | 
2 | COc1cccc(C2CS(=O)(=O)Oc3c2c(C2CC2)nn3-c2ccccc2F)c1 (centres undefined) | inactive |  | 3.47 µM | 2.01
3 | Cc1nn(-c2ccccc2F)c2c1C(c1ccc(F)cc1)CS(=O)(=O)O2 (centres undefined) | inactive |  | 6.1 µM | 2.13
4 | Cc1ccc(C2CS(=O)(=O)Oc3c2c(C)nn3-c2ccccc2)cc1 (centres undefined) | inactive | inactive |  | 
5 | Cc1nn(-c2ccccc2)c2c1C(/C=C/c1ccc(C(F)(F)F)cc1)CS(=O)(=O)O2 (centres undefined) | 19% | inactive |  | 
6 | Cc1nn(-c2ccccc2)c2c1C(c1cnn(-c3ccccc3)c1)CS(=O)(=O)O2 (centres undefined) | inactive | 14% |  | 
7 | Cc1cc(C2CS(=O)(=O)Oc3c2c(C2CC2)nn3-c2ccccc2F)ccc1Br (centres undefined) | inactive |  | 5.71 µM | 2.72
8 | Cc1cc(C2CS(=O)(=O)Oc3c2c(C)nn3-c2ccccc2F)ccc1Br (centres undefined) | inactive |  | 3.83 µM | 2.26
9 | COc1ccc(-n2nc(C)c3c2OS(=O)(=O)CC3c2ccc(Br)c(C)c2)cc1 (centres undefined) | inactive | inactive |  | 
10 | Cc1nn(-c2ccccc2)c2c1C(c1cccc(C(F)(F)F)c1)CS(=O)(=O)O2 (centres undefined) | inactive |  | 16.4 µM | 
11 | COc1ccc(-c2nn(-c3ccc(Cl)cc3)c3c2C(c2ccc(Br)c(C)c2)CS(=O)(=O)O3)cc1 (centres undefined) | inactive |  | 13.3 µM | 
12 | Cc1cccc(C2CS(=O)(=O)Oc3c2c(C)nn3-c2ccccc2)c1 (centres undefined) | inactive |  | 17.7 µM | 
13 | Cc1ccc(-n2nc(C)c3c2OS(=O)(=O)CC3c2ccccc2)cc1C (centres undefined) | inactive | inactive |  | 
14 | Cc1nn(-c2cccc(Cl)c2)c2c1C(c1ccc(F)cc1)CS(=O)(=O)O2 (centres undefined) | inactive | inactive |  | 
15 | Cc1nn(-c2ccc(Cl)cc2)c2c1C(c1ccc(F)cc1)CS(=O)(=O)O2 (centres undefined) | inactive | inactive |  | 
16 | Cc1cccc(/C=C/C2CS(=O)(=O)Oc3c2c(C)nn3-c2ccccc2)c1 (centres undefined) | 13% |  | 10.1 µM | 
17 | CCOC(=O)c1ccc(C2CS(=O)(=O)Oc3c2c(C)nn3-c2ccccc2)cc1 (centres undefined) | inactive | inactive |  | 
18 | O=C1CCCC2=C1C(c1ccc([N+](=O)[O-])cc1)CS(=O)(=O)O2 (centres undefined) | inactive | 25% |  | 
19 | Cc1nn(-c2ccccc2)c2c1C(c1ccc(-c3ccccc3)cc1)CS(=O)(=O)O2 (centres undefined) | 12% | inactive |  | 
20 | Cc1nn(-c2ccc(Br)cc2)c2c1C(c1ccccc1)CS(=O)(=O)O2 (centres undefined) | inactive | inactive |  | 
21 | COc1ccc(-c2nn(-c3ccccc3Cl)c3c2C(c2ccc(Br)c(C)c2)CS(=O)(=O)O3)cc1 (centres undefined) | inactive | 35% |  | 
22 | Cc1cc(C2CS(=O)(=O)Oc3c2c(C)nn3-c2cccc(Cl)c2)ccc1Br (centres undefined) | inactive | inactive |  | 
23 | Cc1cccc(-n2nc(C)c3c2OS(=O)(=O)CC3c2ccccc2)c1 (centres undefined) | inactive | inactive |  | 

Row | Compound | inhibition [1] | inhibition [2] | IC50 (Cholinesterase) | logD at 24 h [3]
24 | O=S1(=O)CC(c2cccc(C(F)(F)F)c2)c2c(C3CC3)nn(-c3cccc(F)c3)c2O1 (centres undefined) | inactive |  | 4.62 µM | 2.73
25 | Cc1nn(-c2ccccc2)c2c1C(c1ccsc1)CS(=O)(=O)O2 (centres undefined) | inactive |  | 10.1 µM | 
26 | CC(C)C(=O)C1=C(C(C)C)OS(=O)(=O)CC1c1ccc([N+](=O)[O-])cc1 (centres undefined) | inactive | inactive |  | 
27 | COc1ccc(-c2nn(-c3ccccc3Cl)c3c2C(c2ccc(F)cc2)CS(=O)(=O)O3)cc1 (centres undefined) | inactive | inactive |  | 
28 | Cc1nn(-c2ccccc2)c2c1C(c1cccc(C3CS(=O)(=O)Oc4c3c(C)nn4-c3ccccc3)c1)CS(=O)(=O)O2 (centres undefined) | inactive | inactive |  | 
29 | Cc1ccc(-n2nc(C)c3c2OS(=O)(=O)CC3c2ccccc2)cc1 (centres undefined) | inactive | inactive |  | 
30 | Cc1cc(C2CS(=O)(=O)Oc3c2c(C2CC2)nn3-c2cccc(Cl)c2)ccc1Br (centres undefined) | inactive | 34% |  | 
31 | O=S1(=O)CC(c2cccc(F)c2)c2c(C3CC3)nn(-c3ccccc3F)c2O1 (centres undefined) | inactive |  | 4.01 µM | 2.86
32 | CC(=O)c1cccc(C2CS(=O)(=O)Oc3c2c(C)nn3-c2ccccc2)c1 (centres undefined) | inactive | 24% |  | 
33 | O=C1CCC2=C1C(c1ccc([N+](=O)[O-])cc1)CS(=O)(=O)O2 (centres undefined) | inactive | inactive |  | 
34 | Cc1nn(-c2ccccc2)c2c1C(c1ccc3ccccc3c1)CS(=O)(=O)O2 (centres undefined) | inactive | inactive |  | 
35 | COc1ccc(-c2nn(-c3ccccc3F)c3c2C(c2ccc(F)cc2)CS(=O)(=O)O3)cc1 (centres undefined) | inactive | inactive |  | 
36 | COc1cccc(C2CS(=O)(=O)Oc3c2c(C)nn3-c2cccc(Cl)c2)c1 (centres undefined) | inactive | inactive |  | 
37 | Cc1nn(-c2ccccc2)c2c1C(/C=C/c1ccc(Br)cc1)CS(=O)(=O)O2 (centres undefined) | inactive | inactive |  | 
38 | Cc1nn(-c2ccccc2)c2c1C(c1cccc(F)c1)CS(=O)(=O)O2 (centres undefined) | inactive |  | 9.82 µM | 
39 | Cc1nn(-c2ccccc2)c2c1C(c1cc3ccccc3s1)CS(=O)(=O)O2 (centres undefined) | 14% | 33% |  | 
40 | Cc1nn(-c2ccccc2)c2c1C(/C=C/c1ccc(C(C)(C)C)cc1)CS(=O)(=O)O2 (centres undefined) | 11% | inactive |  | 
41 | Cc1nn(-c2ccccc2)c2c1C(c1cccc([N+](=O)[O-])c1)CS(=O)(=O)O2 (centres undefined) | inactive | 23% |  | 
42 | Cc1nn(-c2ccccc2)c2c1C(c1ccc(F)cc1)CS(=O)(=O)O2 (centres undefined) | inactive | 37% |  | 
43 | Cc1nn(-c2ccc(Cl)cc2)c2c1C(c1cccc(F)c1)CS(=O)(=O)O2 (centres undefined) | inactive | inactive |  | 
44 | Cc1nn(-c2ccccc2)c2c1CCS(=O)(=O)O2 | inactive | inactive |  | 
45 | COc1ccc(-c2nn(-c3ccc(Cl)cc3)c3c2C(c2ccc(C#N)cc2)CS(=O)(=O)O3)cc1 (centres undefined) | inactive |  | 21 µM | 
46 | COc1cccc(C2CS(=O)(=O)Oc3c2c(C)nn3-c2ccccc2)c1 (centres undefined) | inactive |  | 11 µM | 

Row | Compound | inhibition [1] | inhibition [2] | IC50 (Cholinesterase) | logD at 24 h [3]
47 | Cc1cc(C2CS(=O)(=O)Oc3c2c(C)nn3-c2ccc(Cl)cc2)ccc1Br (centres undefined) | inactive | 34% |  | 
48 | Cc1nn(-c2cccc(F)c2)c2c1C(c1ccc(F)cc1)CS(=O)(=O)O2 (centres undefined) | inactive | inactive |  | 
49 | Cc1cc(C)cc(C2CS(=O)(=O)Oc3c2c(C)nn3-c2ccccc2)c1 (centres undefined) | inactive | inactive |  | 
50 | COc1ccc(C2CS(=O)(=O)Oc3c2c(C)nn3-c2ccccc2)cc1 (centres undefined) | inactive |  | 9.35 µM | 
51 | COc1ccc(-n2nc(C)c3c2OS(=O)(=O)CC3c2ccc(F)cc2)cc1 (centres undefined) | inactive | 15% |  | 
52 | CC(=O)C1=C(C)OS(=O)(=O)CC1c1ccc([N+](=O)[O-])cc1 (centres undefined) | inactive | inactive |  | 
53 | Cc1nn(-c2ccccc2)c2c1C(c1ccc([N+](=O)[O-])cc1)CS(=O)(=O)O2 (centres undefined) | inactive | inactive |  | 
54 | Cc1nn(-c2ccc(F)cc2)c2c1C(c1ccccc1)CS(=O)(=O)O2 (centres undefined) | inactive | inactive |  | 
55 | Cc1nn(-c2cccc(Cl)c2)c2c1C(c1cccc(F)c1)CS(=O)(=O)O2 (centres undefined) | inactive | inactive |  | 
56 | COc1ccc(-c2nn(-c3ccc(Cl)cc3)c3c2C(c2ccc(F)cc2)CS(=O)(=O)O3)cc1 (centres undefined) | inactive | 7% |  | 
57 | CC1(C)CC(=O)C2=C(C1)OS(=O)(=O)CC2c1ccc([N+](=O)[O-])cc1 (centres undefined) | inactive | inactive |  | 
58 | COc1cccc(C2CS(=O)(=O)Oc3c2c(C2CC2)nn3-c2cccc(F)c2)c1 (centres undefined) | inactive |  | 14.3 µM | 
59 | O=S1(=O)CC(c2cccc(C(F)(F)F)c2)c2c(C3CC3)nn(-c3ccccc3Cl)c2O1 (centres undefined) | inactive | inactive |  | 
60 | Cc1cc(C2CS(=O)(=O)Oc3c2c(C2CC2)nn3-c2cccc(F)c2)ccc1Br (centres undefined) | inactive |  | 11.5 µM | 
61 | Cc1nn(-c2ccccc2)c2c1C(c1cccs1)CS(=O)(=O)O2 (centres undefined) | inactive | 42% |  | 
62 | Cc1nn(-c2ccccc2)c2c1C(c1cccc3c1sc1ccccc13)CS(=O)(=O)O2 (centres undefined) | inactive | inactive |  | 
63 | Cc1nn(-c2ccccc2)c2c1C(c1cc3ccccc3o1)CS(=O)(=O)O2 (centres undefined) | inactive |  | 2.6 µM | 
64 | COc1ccccc1C1CS(=O)(=O)Oc2c1c(C)nn2-c1ccccc1 (centres undefined) | inactive | 31% |  | 
65 | Cc1nn(-c2ccccc2)c2c1C(c1ccc(C#N)cc1)CS(=O)(=O)O2 (centres undefined) | inactive | 15% |  | 
66 | N#Cc1ccc(C2CS(=O)(=O)Oc3c2c(C2CC2)nn3-c2cccc(Cl)c2)cc1 (centres undefined) | inactive | inactive |  | 
67 | Cc1nn(-c2cccc(F)c2)c2c1C(c1cccc(F)c1)CS(=O)(=O)O2 (centres undefined) | inactive | inactive |  | 
68 | Cc1ccc(C2CS(=O)(=O)Oc3c2c(C)nn3-c2ccccc2)cc1Br (centres undefined) | inactive |  | 18.3 µM | 
69 | COc1ccc(-c2nn(-c3ccc(Cl)cc3)c3c2C(c2cccc(OC)c2)CS(=O)(=O)O3)cc1 (centres undefined) | inactive | 42% |  | 
